Assay results published in PMC10004634 (PLOS ONE, 2023).

How the values were obtained:
PKNB(M.tuberculosis) = PKNB(M.tuberculosis) (Mycobacterium tuberculosis, UniProt P9WI81); assay: biochemical; settings: read-out: Percent control / Ibrutinib
TMD8 cells = assay: SILAC phosphoproteomic analysis
Method: For differential SILAC encoding, both cells were grown in arginine- and lysine-deficient culture medium containing light (Arg0/Lys0) or heavy (Arg10/Lys8) isotopic forms of L-arginine and L-lysine (SILAC medium). […] For mass spectrometric analysis, phosphopeptide-enriched samples were loaded onto a reversed phase analytical column, resolved by an acetonitrile gradient using a nanoflow HPLC system and directly electrosprayed via a nanoelectrospray ion source into an LTQ-Orbitrap Velos mass spectrometer (Thermo Fisher Scientific). […] A false discovery rate (FDR) of 0.01 was selected for protein and peptide identification, and a posterior error probability of ≤0.1 for each peptide-to-spectral match was required. The resulting list of phosphosites exported from the MaxQuant software was filtered for class-I sites (only serine, threonine, or tyrosine assignments with a localization probability of ≥0.75) [33] and used for all subsequent biostatistical analysis. […] Gaussian regression analysis on the histogram plot of these log2-transformed ratios was performed using Sigmaplot (version 10.0; Systat Software Inc.). The obtained values for the mean and standard deviation across the whole quantitative dataset were used to determine thresholds for significant regulation of at least ±2.5 σ. […] Furthermore, only phosphosites conforming to this criterion and showing consistent regulation in both biological replicates were considered as regulated.

RIPK2 = RIPK2 (Homo sapiens, UniProt O43353); assay: KinAffinity cell-based binding assay using PBMC; set-up: in a cell-based assay using PBMC (Kd); host or cells: PBMC
PFPK5(P.falciparum) = target: T1, PFPK5(P.falciparum) (Plasmodium falciparum, UniProt P61075); assay: biochemical; settings: read-out: Percent control / Zanubrutinib
T1 construct: gene MAL13P1.279
T1 sequence (P61075 whole entry): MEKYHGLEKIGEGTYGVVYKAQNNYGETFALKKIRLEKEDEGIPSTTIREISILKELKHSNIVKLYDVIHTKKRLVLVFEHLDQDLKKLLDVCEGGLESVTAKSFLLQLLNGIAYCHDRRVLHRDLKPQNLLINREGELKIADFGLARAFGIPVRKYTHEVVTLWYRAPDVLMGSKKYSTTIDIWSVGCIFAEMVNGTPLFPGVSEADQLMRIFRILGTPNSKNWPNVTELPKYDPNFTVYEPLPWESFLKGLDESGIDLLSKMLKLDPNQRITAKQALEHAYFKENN

Sequence of RIPK2 (O43353 whole entry): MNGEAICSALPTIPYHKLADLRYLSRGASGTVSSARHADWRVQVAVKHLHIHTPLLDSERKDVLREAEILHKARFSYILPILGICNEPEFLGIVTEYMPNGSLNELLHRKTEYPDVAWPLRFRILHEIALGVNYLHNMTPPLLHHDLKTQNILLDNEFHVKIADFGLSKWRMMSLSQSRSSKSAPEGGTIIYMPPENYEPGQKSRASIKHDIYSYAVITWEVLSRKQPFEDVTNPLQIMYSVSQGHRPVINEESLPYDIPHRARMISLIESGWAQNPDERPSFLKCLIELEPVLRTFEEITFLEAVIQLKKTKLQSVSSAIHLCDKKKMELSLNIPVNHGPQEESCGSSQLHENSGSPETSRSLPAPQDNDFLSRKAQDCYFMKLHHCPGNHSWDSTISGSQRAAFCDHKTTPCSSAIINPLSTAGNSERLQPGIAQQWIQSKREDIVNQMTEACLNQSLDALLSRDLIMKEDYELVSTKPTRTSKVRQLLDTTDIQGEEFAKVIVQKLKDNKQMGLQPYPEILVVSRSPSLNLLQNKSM
Sequence of PKNB(M.tuberculosis) (P9WI81 whole entry, looked up): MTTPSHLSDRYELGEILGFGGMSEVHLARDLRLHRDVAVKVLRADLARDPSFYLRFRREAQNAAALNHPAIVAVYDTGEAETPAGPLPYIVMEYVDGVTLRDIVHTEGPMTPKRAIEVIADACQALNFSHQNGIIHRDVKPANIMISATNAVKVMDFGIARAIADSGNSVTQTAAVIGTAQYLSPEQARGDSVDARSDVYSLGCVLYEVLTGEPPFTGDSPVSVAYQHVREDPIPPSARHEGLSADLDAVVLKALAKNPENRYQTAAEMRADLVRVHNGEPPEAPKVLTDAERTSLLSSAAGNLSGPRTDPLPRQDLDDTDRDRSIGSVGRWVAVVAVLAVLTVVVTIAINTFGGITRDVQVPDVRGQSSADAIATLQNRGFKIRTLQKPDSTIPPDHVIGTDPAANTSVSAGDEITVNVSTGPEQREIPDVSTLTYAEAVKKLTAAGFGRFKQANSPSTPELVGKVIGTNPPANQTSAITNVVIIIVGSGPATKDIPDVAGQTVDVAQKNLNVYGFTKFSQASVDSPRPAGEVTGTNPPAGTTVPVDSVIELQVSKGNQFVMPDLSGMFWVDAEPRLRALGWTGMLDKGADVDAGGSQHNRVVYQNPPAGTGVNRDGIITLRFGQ

## C=CC(=O)N1CCC[C@@H](n2nc(-c3ccc(Oc4ccccc4)cc3)c3c(N)ncnc32)C1 [Ibrutinib]
PKNB(M.tuberculosis)
  remaining activity at 0.3 µM: 93%

## CC#CC(=O)N1CC[C@@H](n2c(=O)n(-c3ccc(Oc4ccccc4)cc3)c3c(N)ncnc32)C1 [Tirabrutinib]
TMD8 cells; 1 μM, 1 h
  reduction of ATF2 phosphorylation on Thr-69: approximately 50%
  reduction of ATF2 phosphorylation on Thr-71: approximately 50%
TMD8 cells; 1 μM, 1 h, ratio <0.679
  number of downregulated phosphorylation sites: 138
TMD8 cells; 1 μM, 1 h, ratio >1.472
  number of upregulated phosphorylation sites: 15
TMD8 cells; AKT1S1 S183
  Tirabrutinib/ctrl. rep. 1: 0.69
  Tirabrutinib/ctrl. rep. 2: 0.65
TMD8 cells; AKT1S1 S202
  Tirabrutinib/ctrl. rep. 1: 1.29
  Tirabrutinib/ctrl. rep. 2: 1.18
TMD8 cells; AKT1S1 S203
  Tirabrutinib/ctrl. rep. 1: 1.16
  Tirabrutinib/ctrl. rep. 2: 1.11
TMD8 cells; AKT1S1 S211
  Tirabrutinib/ctrl. rep. 1: 0.98
  Tirabrutinib/ctrl. rep. 2: 0.82
TMD8 cells; AKT1S1 T246
  Regulation of Phosphorylation Site: ↓
  Tirabrutinib/ctrl. rep. 1: 0.61
  Tirabrutinib/ctrl. rep. 2: 0.51
TMD8 cells; AKT1 S124
  Tirabrutinib/ctrl. rep. 1: 0.97
  Tirabrutinib/ctrl. rep. 2: 1.01
TMD8 cells; AKT1 S129
  Tirabrutinib/ctrl. rep. 1: 1.07
  Tirabrutinib/ctrl. rep. 2: 0.94
TMD8 cells; AKT2 S126
  Tirabrutinib/ctrl. rep. 1: 0.95
  Tirabrutinib/ctrl. rep. 2: 0.95
TMD8 cells; AKT2 T451
  Tirabrutinib/ctrl. rep. 1: 1.00
  Tirabrutinib/ctrl. rep. 2: 0.94
TMD8 cells; ATF2 S112
  Tirabrutinib/ctrl. rep. 1: 1.07
  Tirabrutinib/ctrl. rep. 2: 0.83
TMD8 cells; ATF2 T69
  Regulation of Phosphorylation Site: ↓
  Tirabrutinib/ctrl. rep. 1: 0.53
  Tirabrutinib/ctrl. rep. 2: 0.53
TMD8 cells; ATF2 T71
  Regulation of Phosphorylation Site: ↓
  Tirabrutinib/ctrl. rep. 1: 0.50
  Tirabrutinib/ctrl. rep. 2: 0.53
TMD8 cells; CARD11 S483
  Tirabrutinib/ctrl. rep. 1: 0.72
  Tirabrutinib/ctrl. rep. 2: 1.26
TMD8 cells; CARD11 S529
  Tirabrutinib/ctrl. rep. 1: 0.89
  Tirabrutinib/ctrl. rep. 2: 0.90
TMD8 cells; CARD11 S554
  Tirabrutinib/ctrl. rep. 2: 0.79
TMD8 cells; CARD11 S610
  Tirabrutinib/ctrl. rep. 1: 0.99
  Tirabrutinib/ctrl. rep. 2: 0.96
TMD8 cells; CARD11 S622
  Tirabrutinib/ctrl. rep. 1: 1.01
  Tirabrutinib/ctrl. rep. 2: 1.05
TMD8 cells; CARD11 S903
  Tirabrutinib/ctrl. rep. 1: 1.34
  Tirabrutinib/ctrl. rep. 2: 1.37
TMD8 cells; CARD11 S942
  Tirabrutinib/ctrl. rep. 1: 0.92
  Tirabrutinib/ctrl. rep. 2: 0.78
TMD8 cells; ELK1 S501
  Regulation of Phosphorylation Site: ↓
  Tirabrutinib/ctrl. rep. 1: 0.33
  Tirabrutinib/ctrl. rep. 2: 0.48
TMD8 cells; ERF S327
  Regulation of Phosphorylation Site: ↓
  Tirabrutinib/ctrl. rep. 1: 0.59
  Tirabrutinib/ctrl. rep. 2: 0.50
TMD8 cells; ERF T526
  Tirabrutinib/ctrl. rep. 1: 0.85
  Tirabrutinib/ctrl. rep. 2: 0.87
TMD8 cells; ETV3 S245
  Regulation of Phosphorylation Site: ↓
  Tirabrutinib/ctrl. rep. 1: 0.30
  Tirabrutinib/ctrl. rep. 2: 0.28
TMD8 cells; ETV3 S250
  Regulation of Phosphorylation Site: ↓
  Tirabrutinib/ctrl. rep. 1: 0.30
  Tirabrutinib/ctrl. rep. 2: 0.28
TMD8 cells; HSP27 S15
  Tirabrutinib/ctrl. rep. 1: 0.59
  Tirabrutinib/ctrl. rep. 2: 1.31
TMD8 cells; HSP27 S78
  Tirabrutinib/ctrl. rep. 1: 0.67
  Tirabrutinib/ctrl. rep. 2: 0.69
TMD8 cells; HSP27 S82
  Regulation of Phosphorylation Site: ↓
  Tirabrutinib/ctrl. rep. 1: 0.62
  Tirabrutinib/ctrl. rep. 2: 0.60
TMD8 cells; IKBKG S455
  Tirabrutinib/ctrl. rep. 1: 1.17
  Tirabrutinib/ctrl. rep. 2: 0.97
TMD8 cells; MAPK1 Y187
  Regulation of Phosphorylation Site: ↓
  Tirabrutinib/ctrl. rep. 1: 0.34
  Tirabrutinib/ctrl. rep. 2: 0.47
TMD8 cells; MAPK3 Y204
  Regulation of Phosphorylation Site: ↓
  Tirabrutinib/ctrl. rep. 1: 0.26
  Tirabrutinib/ctrl. rep. 2: 0.42
TMD8 cells; NHE1 S693
  Tirabrutinib/ctrl. rep. 1: 1.21
  Tirabrutinib/ctrl. rep. 2: 1.00
TMD8 cells; NHE1 S703
  Regulation of Phosphorylation Site: ↓
  Tirabrutinib/ctrl. rep. 1: 0.55
  Tirabrutinib/ctrl. rep. 2: 0.51
TMD8 cells; NHE1 S785
  Tirabrutinib/ctrl. rep. 1: 1.11
  Tirabrutinib/ctrl. rep. 2: 1.29
TMD8 cells; NHE1 S796
  Tirabrutinib/ctrl. rep. 1: 0.62
  Tirabrutinib/ctrl. rep. 2: 0.78
TMD8 cells; PEA15 S82
  Tirabrutinib/ctrl. rep. 1: 0.88
  Tirabrutinib/ctrl. rep. 2: 0.96
TMD8 cells; PEA15 S137
  Regulation of Phosphorylation Site: ↓
  Tirabrutinib/ctrl. rep. 1: 0.35
  Tirabrutinib/ctrl. rep. 2: 0.29
TMD8 cells; PIK3AP1 S642
  Tirabrutinib/ctrl. rep. 1: 0.94
  Tirabrutinib/ctrl. rep. 2: 1.03
TMD8 cells; PIK3AP1 S759
  Tirabrutinib/ctrl. rep. 1: 0.83
  Tirabrutinib/ctrl. rep. 2: 0.69
TMD8 cells; PIK3AP1 T151
  Tirabrutinib/ctrl. rep. 1: 1.07
  Tirabrutinib/ctrl. rep. 2: 1.02
TMD8 cells; PIK3AP1 Y570
  Regulation of Phosphorylation Site: ↓
  Tirabrutinib/ctrl. rep. 1: 0.51
  Tirabrutinib/ctrl. rep. 2: 0.41
TMD8 cells; PLCG2 S160
  Tirabrutinib/ctrl. rep. 1: 0.86
  Tirabrutinib/ctrl. rep. 2: 1.09
TMD8 cells; PLCG2 S443
  Tirabrutinib/ctrl. rep. 1: 0.84
  Tirabrutinib/ctrl. rep. 2: 1.41
TMD8 cells; PLCG2 Y753
  Tirabrutinib/ctrl. rep. 1: 0.79
  Tirabrutinib/ctrl. rep. 2: 0.55
TMD8 cells; PRKCB S241
  Regulation of Phosphorylation Site: ↑
  Tirabrutinib/ctrl. rep. 1: 3.02
  Tirabrutinib/ctrl. rep. 2: 1.76
TMD8 cells; PRKCB S673
  Tirabrutinib/ctrl. rep. 1: 0.88
  Tirabrutinib/ctrl. rep. 2: 0.60
TMD8 cells; PRKCB T500
  Tirabrutinib/ctrl. rep. 1: 0.71
  Tirabrutinib/ctrl. rep. 2: 1.08
TMD8 cells; PRKCB T641
  Tirabrutinib/ctrl. rep. 1: 1.00
  Tirabrutinib/ctrl. rep. 2: 1.01
TMD8 cells; PRKCB T642
  Tirabrutinib/ctrl. rep. 1: 0.99
  Tirabrutinib/ctrl. rep. 2: 1.92
TMD8 cells; PRKD2 S198
  Tirabrutinib/ctrl. rep. 1: 0.55
  Tirabrutinib/ctrl. rep. 2: 0.69
TMD8 cells; PRKD2 S206
  Regulation of Phosphorylation Site: ↓
  Tirabrutinib/ctrl. rep. 1: 0.32
  Tirabrutinib/ctrl. rep. 2: 0.48
TMD8 cells; PRKD2 S214
  Regulation of Phosphorylation Site: ↓
  Tirabrutinib/ctrl. rep. 1: 0.46
  Tirabrutinib/ctrl. rep. 2: 0.48
TMD8 cells; PRKD2 S710
  Regulation of Phosphorylation Site: ↓
  Tirabrutinib/ctrl. rep. 1: 0.45
  Tirabrutinib/ctrl. rep. 2: 0.56
TMD8 cells; PRKD3 S31
  Tirabrutinib/ctrl. rep. 1: 0.76
  Tirabrutinib/ctrl. rep. 2: 0.85
TMD8 cells; PRKD3 S213
  Tirabrutinib/ctrl. rep. 1: 1.40
  Tirabrutinib/ctrl. rep. 2: 1.11
TMD8 cells; PRKD3 S364
  Tirabrutinib/ctrl. rep. 1: 0.98
  Tirabrutinib/ctrl. rep. 2: 0.97
TMD8 cells; PRKD3 S395
  Tirabrutinib/ctrl. rep. 1: 0.77
  Tirabrutinib/ctrl. rep. 2: 0.65
TMD8 cells; PRKD3 S735
  Regulation of Phosphorylation Site: ↓
  Tirabrutinib/ctrl. rep. 1: 0.41
  Tirabrutinib/ctrl. rep. 2: 0.43
TMD8 cells; RAF1 S1055
  Regulation of Phosphorylation Site: ↓
  Tirabrutinib/ctrl. rep. 1: 0.61
  Tirabrutinib/ctrl. rep. 2: 0.61
TMD8 cells; RELA S203
  Tirabrutinib/ctrl. rep. 1: 0.85
  Tirabrutinib/ctrl. rep. 2: 1.23
TMD8 cells; RELA S238
  Tirabrutinib/ctrl. rep. 1: 0.84
  Tirabrutinib/ctrl. rep. 2: 1.07
TMD8 cells; RPS6KA1 S230
  Tirabrutinib/ctrl. rep. 1: 0.93
  Tirabrutinib/ctrl. rep. 2: 0.89
TMD8 cells; RPS6KA1 S741
  Regulation of Phosphorylation Site: ↓
  Tirabrutinib/ctrl. rep. 1: 0.61
  Tirabrutinib/ctrl. rep. 2: 0.59
TMD8 cells; RPS6KA1 T234
  Tirabrutinib/ctrl. rep. 1: 0.93
  Tirabrutinib/ctrl. rep. 2: 0.96
TMD8 cells; TSC2 S1411
  Tirabrutinib/ctrl. rep. 1: 1.07
  Tirabrutinib/ctrl. rep. 2: 1.15
TMD8 cells; TSC2 S1418
  Tirabrutinib/ctrl. rep. 1: 1.12
  Tirabrutinib/ctrl. rep. 2: 1.10
TMD8 cells; TSC2 S1799
  Tirabrutinib/ctrl. rep. 1: 1.15
  Tirabrutinib/ctrl. rep. 2: 0.89
TMD8 cells; YBX1 S102
  Regulation of Phosphorylation Site: ↓
  Tirabrutinib/ctrl. rep. 1: 0.60
  Tirabrutinib/ctrl. rep. 2: 0.46
TMD8 cells; YBX1 S165
  Tirabrutinib/ctrl. rep. 1: 0.91
  Tirabrutinib/ctrl. rep. 2: 0.96
TMD8 cells; YBX1 S167
  Tirabrutinib/ctrl. rep. 1: 1.07
RIPK2
  Kd: > 3 µM

## C=CC(=O)N1CCC([C@@H]2CCNc3c(C(N)=O)c(-c4ccc(Oc5ccccc5)cc4)nn32)CC1 [Zanubrutinib]
PFPK5(P.falciparum)
  remaining activity at 0.3 µM: 100%
